Reference: PubChem BioAssay (NCI)
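Growth conditions: 96-well plates. Treatment: test compound, 48 hours, 5 concentrations. Analysis: linear interpolation between bracketing concentrations; unreached endpoints set to highest concentration. TGI is the concentration that stops growth completely.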

Key:
Test in all cases: DTP human tumour cell line panel, 48 h
[1] = system: MDA-MB-435
[2] = system: IGROV1 ovarian
[3] = system: 786-0 renal
[4] = system: SW-620 colon
[5] = system: DU-145 prostate
[6] = system: SN12C renal
[7] = system: MDA-MB-231 breast
[8] = system: OVCAR-8 ovarian
[9] = system: A498 renal

| Structure (SMILES) | TGI [1] | TGI [2] | TGI [3] | TGI [4] | TGI [5] | TGI [6] | TGI [7] | TGI [8] | TGI [9] |
| --- | --- | --- | --- | --- | --- | --- | --- | --- | --- |
| O=C(O)c1ccccc1CC1Cc2ccccc2C1=O (stereo not given) | > 100 µM | > 100 µM | > 100 µM | > 100 µM | > 100 µM | > 100 µM | > 100 µM | > 100 µM | – |
| CCOC(=O)c1nc2c(nc1C(=O)OCC)C(=O)c1ccccc1C2=O | 0.804 µM | 23.8 µM | 6.33 µM | 3.77 µM | 2.48 µM | 0.4 µM | 8.41 µM | 6.56 µM | 4.38 µM |
| O=C1NCCN1/N=C/c1c(Cl)n(-c2ccccc2)c2ccccc12 | 33.1 µM | 41.7 µM | 77 µM | 53.4 µM | 48.4 µM | 40.2 µM | 44.1 µM | 44.8 µM | 45.8 µM |
| COc1ccc(C2=N/C(=C\c3ccccc3)C(=O)O2)cc1 | > 100 µM | > 100 µM | – | > 100 µM | – | – | – | > 100 µM | – |
| CC1(C)C2CCC1(C)[C@H](n1c(=O)n([C@@H]3CC4CCC3(C)C4(C)C)c(=O)n([C@@H]3CC4CCC3(C)C4(C)C)c1=O)C2 | > 100 µM | > 100 µM | > 100 µM | > 100 µM | > 100 µM | – | > 100 µM | > 100 µM | > 100 µM |
| OCCc1ccsc1-c1sc(-c2cc(CCO)c(-c3sccc3CCO)s2)cc1CCO | 41.1 µM | 29.5 µM | 29 µM | > 100 µM | 32.9 µM | 63.1 µM | 48.5 µM | 29.5 µM | 40.3 µM |
| CN(C)C1(N(C)C)Oc2c(c(=O)n(C)c(=O)n2C)C(c2ccc(Br)cc2)C1(F)F (stereo not given) | > 100 µM | – | > 100 µM | > 100 µM | > 100 µM | – | > 100 µM | – | > 100 µM |
| COc1cccc2c1OC1(C=C2)Oc2ccccc2C(=O)N1C (stereo not given) | 59.8 µM | > 100 µM | > 100 µM | > 100 µM | > 100 µM | > 100 µM | > 100 µM | 54.4 µM | 57.4 µM |
| CCOC(=O)c1cn2c(nc1=O)N[C@H]1CCCC[C@@H]12 | > 100 µM | > 100 µM | > 100 µM | > 100 µM | > 100 µM | > 100 µM | > 100 µM | > 100 µM | > 100 µM |
| CCN(CC)/C(SCc1ccccc1)=C(\C(Cl)=C(Cl)Cl)[N+](=O)[O-] | 32 µM | 33.8 µM | 30.2 µM | 50.4 µM | 39.2 µM | 42.4 µM | 49.7 µM | 31.7 µM | 26.9 µM |
| COP(=O)(/C=C/c1cc(C(=O)OCc2ccccc2)n(S(=O)(=O)c2ccccc2)c1)OC | > 100 µM | > 100 µM | > 100 µM | > 100 µM | > 100 µM | > 100 µM | > 100 µM | > 100 µM | > 100 µM |
| CCN(CC)CCN(C(=Nc1ccccc1)N1CCOCC1)c1ccccc1 | > 100 µM | > 100 µM | > 100 µM | > 100 µM | > 100 µM | > 100 µM | > 100 µM | > 100 µM | – |
| Cc1ccc(-c2[nH]c(=O)n(C3OC(CO)C(O)C(O)C3O)c(=O)c2C#N)cc1 (stereo not given) | > 100 µM | > 100 µM | > 100 µM | > 100 µM | > 100 µM | > 100 µM | > 100 µM | > 100 µM | > 100 µM |
| CC1CCC(C(=O)O)(C(Br)C(=O)O)CC1 (stereo not given) | > 100 µM | > 100 µM | > 100 µM | > 100 µM | > 100 µM | > 100 µM | > 100 µM | > 100 µM | – |
| O=C(O)CCC(=O)OC1N=C(c2ccccc2Cl)c2cc([N+](=O)[O-])ccc2NC1=O (stereo not given) | > 100 µM | > 100 µM | > 100 µM | > 100 µM | > 100 µM | > 100 µM | > 100 µM | > 100 µM | > 100 µM |
| CCCCCCOc1ccc(C(=O)NOC)cc1 | > 100 µM | > 100 µM | > 100 µM | > 100 µM | > 100 µM | > 100 µM | > 100 µM | > 100 µM | > 100 µM |
| CS(=O)c1ncc2c(n1)-c1ccccc1OC2 (stereo not given) | > 100 µM | > 100 µM | > 100 µM | > 100 µM | > 100 µM | > 100 µM | > 100 µM | > 100 µM | – |
| CC(=O)Nc1nc(C#N)[nH]c1C#N | > 100 µM | > 100 µM | > 100 µM | > 100 µM | > 100 µM | > 100 µM | > 100 µM | > 100 µM | > 100 µM |
| N#CC12C(=O)N=C(N)C1(C#N)C(c1ccco1)NC1=C2CCCC1 (stereo not given) | > 100 µM | > 100 µM | > 100 µM | > 100 µM | > 100 µM | > 100 µM | > 100 µM | > 100 µM | > 100 µM |
| Cc1cccc2c1CC1(C2)Cc2c(C)cccc2C1=O (stereo not given) | 55.8 µM | > 100 µM | 70.2 µM | > 100 µM | 77.3 µM | 74.2 µM | 53.7 µM | > 100 µM | 88.9 µM |
| O=C(/C=C/c1ccc2c(c1)OCO2)CC(=O)C(=O)c1c[nH]c2ccccc12 | 68.5 µM | > 100 µM | > 100 µM | > 100 µM | > 100 µM | > 100 µM | > 100 µM | > 100 µM | > 100 µM |
| CN(C)c1ccc(S(=O)Nc2ccccc2)cc1 (stereo not given) | 57.5 µM | > 100 µM | > 100 µM | > 100 µM | > 100 µM | > 100 µM | > 100 µM | > 100 µM | – |
| CS(=O)(=O)OCC(CCl)(CCl)CCl | > 100 µM | – | – | > 100 µM | > 100 µM | > 100 µM | > 100 µM | > 100 µM | > 100 µM |
| CSC(=S)N/N=C(\C)c1ccc(S(=O)(=O)N(C)c2ccccc2)cc1 | > 100 µM | > 100 µM | > 100 µM | > 100 µM | > 100 µM | > 100 µM | > 100 µM | > 100 µM | > 100 µM |
